These results are taken from patent US20250179017A1 (GUANGDONG NEWOPP BIOPHARMACEUTICALS CO., LTD., priority 2022, published 2025).

Bounds are passed on as bounds.

For the assay, the target named is T1, human EP2 (PTGER2) (Homo sapiens, UniProt P43116).
T1 construct: Cayman Chemical (Human EP2 Reporter Assay Kit)
T1 sequence (P43116 whole entry): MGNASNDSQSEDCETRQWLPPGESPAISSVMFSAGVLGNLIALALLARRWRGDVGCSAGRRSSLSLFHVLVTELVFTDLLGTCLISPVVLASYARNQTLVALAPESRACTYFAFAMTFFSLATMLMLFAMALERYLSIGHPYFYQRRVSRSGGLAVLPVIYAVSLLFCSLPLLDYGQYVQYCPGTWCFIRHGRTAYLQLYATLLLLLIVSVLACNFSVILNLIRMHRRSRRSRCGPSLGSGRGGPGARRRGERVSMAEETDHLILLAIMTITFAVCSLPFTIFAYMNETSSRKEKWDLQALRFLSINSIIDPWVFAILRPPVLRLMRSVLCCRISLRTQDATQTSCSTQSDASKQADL
The experiment in a line: EP2 antagonist assay (HEK-293 CNG membrane potential cAMP assay / 293T SEAP reporter assay, PGE2-stimulated). It is filed as cell-based. The conditions noted are these: EP2 antagonist activity; concentration for 50% inhibition of signal compared to DMSO. From the text:
1. The HEK-293 CNG (Cyclic Nucleotide Gated) cell line expressing a modified CNG channel that leads to cell membrane depolarization in response to elevated intracellular cAMP levels, which can be measured using a fluorescent membrane potential dye, was engineered to express human EP2 (PTGER2) or EP4 (EP4R). The resulting cell line ACTOne™ PTGER2 or ACTOne™ EP4R as well as the fluorescent membrane potential dye were purchased from eEnzyme (Gaithersburg, MD, US) and used in this assay. Briefly, cells were plated at 1.2×10^4 cells/well in 20 μL DMEM supplemented with 2% Fetal Bovine Serum (FBS, VWR International), 1x Penicillin/Streptomycin (GenClone), 0.2 μg/mL puromycin (InvivoGen) and 50 μg/mL G418 (InvivoGen) on a 384 well plate (Greiner). The next day, cells were dye-loaded with 20 μL/well of 1x Dye-loading solution (eENZYME) following the manufacturer's instruction. After 2 hours of incubation at room temperature (RT) in the dark, a pre-read was made to obtain the background signals using CLARIOstar plate reader (BMG LABTECH, Germany) with the following filter settings: excitation=530/20 nm, emission=590/20 nm. Next, a serial dilution of compound (plus a DMSO control) were added to the plate (5 μL/well) and the reaction was incubated at RT for 15 min before adding 5 μL of PGE2 to every well for a final concentration of 5 nM. All wells were duplicated. The plate was then further incubated at RT for 30 min prior to a final read with the same machine settings. Background-subtracted signals were used to calculate IC50 values.
2. Human EP2 and EP4 Reporter Assay Kits were purchased from Cayman Chemical (Ann Arbor, MI, USA). The assay was performed following the provided User Manual. Briefly, a reverse transfection was performed by seeding 6.0×10^4 of 293T cells (ATCC) to each well of the provided Strip Plate coated with a proprietary transfection complex containing DNA constructs for expressing human EP2 or EP4 and a cAMP response element regulated secreted alkaline phosphatase (SEAP) reporter, in 200 μL DMEM supplemented with 2% FBS and incubated for 20-24 hours at 37° C. with 5% CO2. After the incubation, the culture medium was carefully removed, and the cells were replenished with 150 μL pre-warmed serum-free medium. PGE2 and test compounds were prepared together at 4x the desired final concentration, and 50 μL was added to each assigned well with the final concentration of 13 nM and 2 nM PGE2 for EP2 and EP4 assay, respectively. After 6-8 hours of incubation, 10 μL media from each well was transferred to corresponding well of a new plate, which was then sealed and incubated at 65° C. for 30 min. The plate was then cooled down to RT and 50 μL SEAP substrate was added to each well. Luminescence signal was measured using a CLARIOstar plate reader.
The IC50 value was determined as the concentration for 50% inhibition of signal compared to DMSO (A: IC50 […]; B: IC50 between 100 nM and 1,000 nM; C: IC50≥1,000 nM).
(In general: cAMP levels reflect the balance of adenylyl cyclase and phosphodiesterase activity.)
The term IC50 denotes the midpoint of a concentration-inhibition curve. The molecule `N#Cc1cccc(-c2ccc(C(=O)NCc3ccc(C(=O)O)cc3)c3c2ccn3Cc2ccc(C(F)(F)F)cc2)c1` [Example 22, 4-((4-(3-cyanophenyl)-1-(4-(trifluoromethyl)benzyl)-1H-indole-7-carboxamido)methyl)benzoic acid] displayed an IC50 of 0.1 to 1 µM.

In turn, `O=C(O)c1ccc(CNC(=O)c2ccc(-c3ccc(F)c(F)c3)c3ccn(Cc4ccc(C(F)(F)F)cc4)c23)cc1` [Example 23, 4-((4-(3,4-difluorophenyl)-1-(4-(trifluoromethyl)benzyl)-1H-indole-7-carboxamido)methyl) benzoic acid] yielded an IC50 of at least 1 µM.

As for `O=C(O)c1ccc(CNC(=O)c2ccc(-c3cccc(C(F)(F)F)c3)c3ccn(Cc4ccc(C(F)(F)F)cc4)c23)cc1` [Example 24, 4-((1-(4-(trifluoromethyl)benzyl)-4-(3-(trifluoromethyl)phenyl)-1H-indole-7-carboxamido)-methyl)benzoic acid], the IC50 is at least 1 µM.

`O=C(O)c1ccc(CNC(=O)c2ccc(-c3ccc(F)cc3)c3ccn(Cc4ccc(C(F)(F)F)cc4)c23)cc1` [Example 25, 4-((4-(4-fluorophenyl)-1-(4-(trifluoromethyl)benzyl)-1H-indole-7-carboxamido)methyl)benzoic acid] showed an IC50 of at least 1 µM.

`O=C(O)c1ccc(CNC(=O)c2ccc(-c3ccccc3)c3ccn(Cc4ccc(C(F)(F)F)cc4)c23)cc1` [Example 26, 4-((4-phenyl-1-(4-(trifluoromethyl)benzyl)-1H-indole-7-carboxamido)methyl)benzoic acid] came in with an IC50 of 0.1 to 1 µM.

`O=C(O)c1ccc(CNC(=O)c2ccc(-c3cc(F)cc(F)c3)c3ccn(Cc4ccc(C(F)(F)F)cc4)c23)cc1` [Example 27, 4-((4-(3,5-difluorophenyl)-1-(4-(trifluoromethyl)benzyl)-1H-indole-7-carboxamido)methyl) benzoic acid] returned an IC50 of at least 1 µM.

As for `O=C(O)c1ccc(CNC(=O)c2ccc(-c3cc(F)cc(C(F)(F)F)c3)c3ccn(Cc4ccc(C(F)(F)F)cc4)c23)cc1` [Example 28, 4-((4-(3-fluoro-5-(trifluoromethyl)phenyl)-1-(4-(trifluoromethyl)benzyl)-1H-indole-7-carboxamido)methyl)benzoic acid], the IC50 was at least 1 µM.

`C[C@@H](NC(=O)c1ccc(-c2ccccc2)c2ccn(Cc3ccc(C(F)(F)F)cc3)c12)c1ccc(C(=O)O)cc1` [Example 29, (R)-4-(1-(4-phenyl-1-(4-(trifluoromethyl)benzyl)-1H-indole-7-carboxamido)ethyl) benzoic acid] came in with an IC50 of at least 1 µM.

`C[C@@H](NC(=O)c1ccc(-c2cccc(C#N)c2)c2ccn(Cc3ccc(C(F)(F)F)cc3)c12)c1ccc(C(=O)O)cc1` [Example 30, (R)-4-(1-(4-(3-cyanophenyl)-1-(4-(trifluoromethyl)benzyl)-1H-indole-7-carboxamido)ethyl) benzoic acid] displayed a half-inhibitory concentration (IC50) of at least 1 µM.

`C[C@@H](NC(=O)c1ccc(-c2ccc(F)c(F)c2)c2ccn(Cc3ccc(C(F)(F)F)cc3)c12)c1ccc(C(=O)O)cc1` [Example 31, (R)-4-(1-(4-(3,4-difluorophenyl)-1-(4-(trifluoromethyl)benzyl)-1H-indole-7-carboxamido)ethyl)benzoic acid]: the IC50 is at least 1 µM.

`C[C@@H](NC(=O)c1ccc(-c2cc(F)cc(F)c2)c2ccn(Cc3ccc(C(F)(F)F)cc3)c12)c1ccc(C(=O)O)cc1` [Example 32, (R)-4-(1-(4-(3,5-difluorophenyl)-1-(4-(trifluoromethyl)benzyl)-1H-indole-7-carboxamido)ethyl) benzoic acid] yielded a concentration for half-maximal inhibition (IC50) of at least 1 µM.

For `C[C@@H](NC(=O)c1ccc(-c2cccc(C(F)(F)F)c2)c2ccn(Cc3ccc(C(F)(F)F)cc3)c12)c1ccc(C(=O)O)cc1` [Example 33, (R)-4-(1-(1-(4-(trifluoromethyl)benzyl)-4-(3-(trifluoromethyl)phenyl)-1H-indole-7-carboxamido)ethyl) benzoic acid], the IC50 is at least 1 µM.

For the molecule `C[C@@H](NC(=O)c1ccc(-c2cc(F)cc(C(F)(F)F)c2)c2ccn(Cc3ccc(C(F)(F)F)cc3)c12)c1ccc(C(=O)O)cc1` [Example 34, (R)-4-(1-(4-(3-fluoro-5-(trifluoromethyl)phenyl)-1-(4-(trifluoromethyl)benzyl)-1H-indole-7-carboxamido)ethyl)benzoic acid], the IC50 is at least 1 µM.

With `C[C@@H](NC(=O)c1ccc(-c2ccc(F)cc2)c2ccn(Cc3ccc(C(F)(F)F)cc3)c12)c1ccc(C(=O)O)cc1` [Example 35, (R)-4-(1-(4-(4-fluorophenyl)-1-(4-(trifluoromethyl)benzyl)-1H-indole-7-carboxamido)ethyl)benzoic acid], the IC50 is at least 1 µM.

`O=C(O)c1ccc(C2(NC(=O)c3ccc(-c4ccccc4)c4ccn(Cc5ccc(C(F)(F)F)cc5)c34)CC2)cc1` [Example 36, 4-(1-(4-phenyl-1-(4-(trifluoromethyl)benzyl)-1H-indole-7-carboxamido)cyclopropyl)benzoic acid] returned an IC50 of at least 1 µM.

Molecule `N#Cc1cccc(-c2ccc(C(=O)NC3(c4ccc(C(=O)O)cc4)CC3)c3c2ccn3Cc2ccc(C(F)(F)F)cc2)c1` [Example 37, 4-(1-(4-(3-cyanophenyl)-1-(4-(trifluoromethyl)benzyl)-1H-indole-7-carboxamido)cyclopropyl)benzoic acid] displayed an IC50 of at least 1 µM.

For the molecule `O=C(O)c1ccc(C2(NC(=O)c3ccc(-c4ccc(F)c(F)c4)c4ccn(Cc5ccc(C(F)(F)F)cc5)c34)CC2)cc1` [Example 38, 4-(1-(4-(3,4-difluorophenyl)-1-(4-(trifluoromethyl)benzyl)-1H-indole-7-carboxamido)cyclopropyl)benzoic acid], the IC50 was at least 1 µM.

On to `O=C(O)c1ccc(C2(NC(=O)c3ccc(-c4cc(F)cc(F)c4)c4ccn(Cc5ccc(C(F)(F)F)cc5)c34)CC2)cc1` [Example 39, 4-(1-(4-(3,5-difluorophenyl)-1-(4-(trifluoromethyl)benzyl)-1H-indole-7-carboxamido)cyclopropyl)benzoic acid], for which the IC50 lay in the range of 0.1 to 1 µM.

Turning to `O=C(O)c1ccc(C2(NC(=O)c3ccc(-c4cccc(C(F)(F)F)c4)c4ccn(Cc5ccc(C(F)(F)F)cc5)c34)CC2)cc1` [Example 40, 4-(1-(1-(4-(trifluoromethyl)benzyl)-4-(3-(trifluoromethyl)phenyl)-1H-indole-7-carboxamido)cyclopropyl)benzoic acid], the IC50 is at least 1 µM.

`O=C(O)c1ccc(C2(NC(=O)c3ccc(-c4cc(F)cc(C(F)(F)F)c4)c4ccn(Cc5ccc(C(F)(F)F)cc5)c34)CC2)cc1` [Example 41, 4-(1-(4-(3-fluoro-5-(trifluoromethyl)phenyl)-1-(4-(trifluoromethyl)benzyl)-1H-indole-7-carboxamido)cyclopropyl)benzoic acid] showed an IC50 of at least 1 µM.

For `O=C(O)c1ccc(C2(NC(=O)c3ccc(-c4ccc(F)cc4)c4ccn(Cc5ccc(C(F)(F)F)cc5)c34)CC2)cc1` [Example 42, 4-(1-(4-(4-fluorophenyl)-1-(4-(trifluoromethyl)benzyl)-1H-indole-7-carboxamido)cyclopropyl)-benzoic acid], the IC50 is at least 1 µM.

In the case of `O=C(O)c1ccc(C2(NC(=O)c3cc(Nc4ccccc4)cc4ccn(Cc5ccc(C(F)(F)F)cc5)c34)CC2)cc1` [Example 43, 4-(1-(5-(phenylamino)-1-(4-(trifluoromethyl)benzyl)-1H-indole-7-carboxamido)cyclopropyl)benzoic acid], the concentration for half-maximal inhibition (IC50) was under 0.1 µM.

As for `CN(c1ccccc1)c1cc(C(=O)NCc2ccc(C(=O)O)cc2)c2c(ccn2Cc2ccc(C(F)(F)F)cc2)c1` [Example 45, 4-((5-(methyl(phenyl)amino)-1-(4-(trifluoromethyl)benzyl)-1H-indole-7-carboxamido)methyl)benzoic acid], the IC50 was in the range of 0.1 to 1 µM.

Molecule `CN(c1ccccc1)c1ccc(C(=O)NC2(c3ccc(C(=O)O)cc3)CC2)c2c1ccn2Cc1ccc(C(F)(F)F)cc1` [Example 46, 4-(1-(4-(methyl(phenyl)amino)-1-(4-(trifluoromethyl)benzyl)-1H-indole-7-carboxamido)cyclopropyl)benzoic acid] yielded an IC50 of at least 1 µM.
